Where two headings read alike, the source gives them in different places. Bridge positions count the residues as written; N and C are the ends. Square brackets hold non-standard residues; d marks the D form. Peptide text beside a SMILES is read from it.
What was measured:
inotocin R (L. niger) = assay: IP1 accumulation, CHO cells expressing L. niger inotocin receptor; format: cell-based, Lasius niger; conditions: 10 µM peptide, L. niger INTR
Experimental: (§1) Chinese Hamster Ovary cells (CHO) were cultured in Ham’s F12 media supplemented with 10% fetal bovine serum (FBS), 1% PenStrep (all from Sigma-Aldrich, Munich, Germany) and grown in a humidified atmosphere of 37 °C, 5% CO2 and passaged on average twice per week. CHO cells were used for expression of inotocin receptor (L. niger, T. castaneum). Cell transfections were carried out with 10 μg of plasmid using Lipofectamine LTX (Life Technologies, Invitrogen, Carlsbad, USA) for invertebrate receptors. For the expression of human OTR, V1aR, V1bR and V2R, HEK293 cells were transfected using jetPRIME (Polyplus Transfections, Illkirch-Graffenstaden, France)[35]. Cells were maintained in DMEM (GE Healthcare Hy Clone™, Logan, USA) supplemented with 10% FBS and 1% PenStrep.
(§2) Activation of Gq-signalling via the human V1aR, V1bR and OTR, as well as the insect INTR was measured by inositol-1-phosphate (IP1) quantification using an IP1 Tb kit (Cisbio, Codolet, France). Transfected cells were seeded in 96 well-plates, with a cell density of 10^4 cells per well. […] Samples were measured in technical triplicates. […] Activation of Gs-signalling via the human V2R was measured using a luciferase reporter assay. […] For Schild regression analysis, each concentration-ratio (r) was calculated as the agonist EC50 in the presence of a respective concentration of [D-Arg8]-inotocin by the EC50 of the agonist alone.

[1] = test system: inotocin R (T. castaneum); assay: IP1 accumulation, CHO cells expressing T. castaneum inotocin receptor; format: cell-based, Tribolium castaneum; conditions: 10 µM peptide, T. castaneum INTR
Experimental: as §1, §2

human myometrium = assay: Ex vivo human myometrial contractility, vasopressin-augmented (0.5 nM); conditions: vasopressin 0.5 nM
human V1bR [2] = molecular target: T1, human V1bR (Homo sapiens, UniProt P47901); assay: cell-based
T1 construct: expressed in transfected cells; host or cells: HEK293 cells, transient (jetPRIME)
T1 sequence (P47901 1-424): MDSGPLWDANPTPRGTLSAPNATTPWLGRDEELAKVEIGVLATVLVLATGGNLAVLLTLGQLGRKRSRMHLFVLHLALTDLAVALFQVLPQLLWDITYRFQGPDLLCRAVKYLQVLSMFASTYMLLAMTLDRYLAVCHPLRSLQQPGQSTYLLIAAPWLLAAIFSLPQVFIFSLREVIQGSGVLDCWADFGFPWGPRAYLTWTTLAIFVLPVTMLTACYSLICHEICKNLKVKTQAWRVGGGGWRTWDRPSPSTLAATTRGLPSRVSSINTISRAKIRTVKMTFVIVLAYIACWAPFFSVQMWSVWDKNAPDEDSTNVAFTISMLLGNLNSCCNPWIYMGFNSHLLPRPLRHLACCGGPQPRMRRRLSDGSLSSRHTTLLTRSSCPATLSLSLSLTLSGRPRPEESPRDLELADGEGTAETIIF
Experimental: as §1
(§3) Activation of Gq-signalling via the human V1aR, V1bR and OTR, as well as the insect INTR was measured by inositol-1-phosphate (IP1) quantification using an IP1 Tb kit (Cisbio, Codolet, France). Transfected cells were seeded in 96 well-plates, with a cell density of 10^4 cells per well. Cell culture media was removed from the wells after 6 h and 70 μL of peptide of interest, prepared in IP1 1X Stimulation Buffer at the desired concentrations, was added. Samples were measured in technical triplicates. After 1 h incubation at 37 °C, 15 μL of IP1-d2 was added, following the same volume of Ab-cryptate. […] Activation of Gs-signalling via the human V2R was measured using a luciferase reporter assay. HEK293 transiently expressing V2R were co-transfected with the pGL4.29 [luc2P/CRE/Hygro] (Promega, Mannheim, Germany) plasmid. […] For cell-based functional assays (luciferase and IP1), subtraction of the negative control (stimulation buffer) was applied to all data set. The normalization was performed to the highest value of the positive control from at least 4 independent experiments. Data were fitted using GraphPad Prism 5.0 with an equation for non-linear regression (sigmoidal, slope fit of 1). Values are reported as mean ± SEM. For Schild regression analysis, each concentration-ratio (r) was calculated as the agonist EC50 in the presence of a respective concentration of [D-Arg8]-inotocin by the EC50 of the agonist alone.

human V2R [3] = molecular target: T2, human V2R (Homo sapiens, UniProt P30518); assay: cell-based; conditions: luciferase reporter, CRE response element; mean ± SEM; read-out: Potency (EC50)
T2 construct: expressed in transfected cells; host or cells: HEK293 cells, transient (jetPRIME); for the reporter assay co-transfected with pGL4.29 [luc2P/CRE/Hygro]
Experimental: as §1, §3

human V1bR [4] = molecular target: T1, human V1bR; assay: Radioligand displacement of [3H] vasopressin, human V1bR membranes; format: binding
Excerpt: Unbound ligands were washed off (Skatron Cell Harvester). […] For the displacement at the human OTR, V1aR, V1bR and V2R the normalization to 100% refers on average to 0.49, 1.4, 0.36, 1.1 pmoles of ligand bound per milligram of membrane for human OTR, V1aR, V1bR and V2R, respectively. […] For the displacement at the insect receptors the normalization to 100% refers on average to 0.65 and 0.69 pmoles of ligand bound per milligram of membrane for inotocin receptor from L. niger and T. castaneum, respectively. Bindings of [^3H] inotocin to membranes (10 μg) expressing INTR from L. niger, or [^3H] inotocin to membranes (10 μg) expressing INTR from T. castaneum, respectively, were assayed for displacement with an excess of inotocin (10^−11 to 10^−5 M) (n ≥ 3, except where otherwise stated). […] Specific binding was calculated by subtracting the non-specific binding from the total binding. IC50 values were obtained by fitting the data to a three-parameter logistic Hill equation. Inhibition constants (Ki) were calculated from IC50 using the method by Cheng and Prusoff[65].

human V2R [5] = molecular target: T2, human V2R; assay: Radioligand displacement of [3H] vasopressin, human V2R membranes; format: binding
Experimental: as §1
(§4) Unbound ligands were washed off (Skatron Cell Harvester). […] Bindings of [^3H] AVP and [^3H] […] Bindings of [^3H] inotocin to membranes (10 μg) expressing INTR from L. niger, or [^3H] inotocin to membranes (10 μg) expressing INTR from T. castaneum, respectively, were assayed for displacement with an excess of inotocin (10^−11 to 10^−5 M) (n ≥ 3, except where otherwise stated). […] Specific binding was calculated by subtracting the non-specific binding from the total binding. IC50 values were obtained by fitting the data to a three-parameter logistic Hill equation. Inhibition constants (Ki) were calculated from IC50 using the method by Cheng and Prusoff[65].

[6] = format: in vitro ADME, human
Experimental: Serum stability was tested as described previously. Briefly, serum was obtained prepared from human blood (self-donor), allowed to coagulate for 2 h at 23 °C and centrifuged at 12,000 × g for 10 min. Peptides (100 μM) were incubated in serum for 2, 4, 6, 8, 10 and 24 h at 37 °C. To evaluate peptide stability, aliquots ([…]) were analysed via RP-HPLC (UltiMate 3000, Thermo Scientific Dionex, Vienna, Austria) on a C18 column (Phenomenex Kinetex, Aschaffenburg, Germany) with a 3% gradient using 0.1% (v/v) TFA and 90/10/0.1% (v/v/v) acetonitrile/H2O/TFA as eluents. Half-life (t1/2) of peptides was calculated using non-linear regression analysis using Graph Pad Prism.
Supplementary Fig. 5. Human serum stability of the inotocin D-analogue. [D-Arg 8 ]-inotocin […]
serum and their stability monitored via HPLC over a time course of 2, 4, 6, 8, 10 and 24 h. Melittin, a haemolytic peptide from the bee venom was used as a positive control f or peptide degradation.
Area under the curves of samples was determined and correlated to the negative control analyte, which was dissolved in 0.1% TFA; thus they were not subject to degradation and were assumed therefore as 100%. Peptide stability was expressed in percentage of peptide remaining.
(1 picture or pasted object on this page, not shown here)

human V1aR [7] = molecular target: T3, human V1aR (Homo sapiens, UniProt P37288); assay: Radioligand displacement of [3H] vasopressin, human V1aR membranes; format: binding; parameters: expressed in transfected cells; host or cells: HEK293 cells, transient (jetPRIME)
Experimental: as §1
as §4, with “IC50 values were obtained by fitting the data to a three-parameter logistic Hill equation.” left out

human V1aR [8] = molecular target: T3, human V1aR; assay: cell-based
human OTR [9] = molecular target: T4, human OTR (Homo sapiens, UniProt P30559); assay: IP1 accumulation, HEK293 cells expressing human OTR; format: cell-based
T4 construct: expressed in transfected cells; host or cells: HEK293 cells, transient (jetPRIME)
T4 sequence (P30559 1-389): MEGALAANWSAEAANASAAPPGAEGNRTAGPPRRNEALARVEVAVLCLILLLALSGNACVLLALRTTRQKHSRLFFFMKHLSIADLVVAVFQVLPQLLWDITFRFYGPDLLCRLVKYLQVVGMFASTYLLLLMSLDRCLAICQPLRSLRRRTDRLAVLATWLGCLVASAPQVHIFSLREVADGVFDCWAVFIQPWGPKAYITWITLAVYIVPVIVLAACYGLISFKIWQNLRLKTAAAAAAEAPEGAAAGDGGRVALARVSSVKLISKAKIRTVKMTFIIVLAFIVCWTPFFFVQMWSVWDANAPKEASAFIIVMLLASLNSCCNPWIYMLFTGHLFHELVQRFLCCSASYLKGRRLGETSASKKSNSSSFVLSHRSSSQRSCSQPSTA
Experimental: as §1, §3

human OTR [10] = molecular target: T4, human OTR; assay: Radioligand displacement of [3H] oxytocin, human OTR membranes; format: binding; conditions: read-out: Affinity (Ki)
Experimental: as §1
as §4, with “IC50 values were obtained by fitting the data to a three-parameter logistic Hill equation.” left out

human V1aR [11] = molecular target: T3, human V1aR; assay: IP1 accumulation, HEK293 cells expressing human V1aR; format: cell-based; parameters: expressed in transfected cells; host or cells: HEK293 cells, transient (jetPRIME)
Experimental: as §1, §3

[12] = 100 nM, relative to control activity
[13] = IP1 accumulation, mean ± SEM, read-out: Potency (EC50)
[14] = Affinity (Ki), displacement of [3H] vasopressin, mean ± SEM
[15] = IP1 response, human OTR, read-out: EC50
[16] = IP1 response, human V1aR, read-out: EC50

T3 sequence (P37288 whole entry): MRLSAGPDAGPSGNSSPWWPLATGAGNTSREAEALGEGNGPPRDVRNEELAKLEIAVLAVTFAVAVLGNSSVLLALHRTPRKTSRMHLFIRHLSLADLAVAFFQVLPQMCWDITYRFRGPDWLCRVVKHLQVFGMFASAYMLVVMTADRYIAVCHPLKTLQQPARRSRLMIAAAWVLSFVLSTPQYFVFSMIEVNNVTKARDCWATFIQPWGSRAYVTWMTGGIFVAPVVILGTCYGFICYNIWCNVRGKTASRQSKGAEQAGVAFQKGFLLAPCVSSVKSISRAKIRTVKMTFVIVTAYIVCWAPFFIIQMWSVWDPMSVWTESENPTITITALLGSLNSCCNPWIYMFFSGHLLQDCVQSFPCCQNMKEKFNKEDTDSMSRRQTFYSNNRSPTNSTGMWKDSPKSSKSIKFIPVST
T2 sequence (P30518 whole entry): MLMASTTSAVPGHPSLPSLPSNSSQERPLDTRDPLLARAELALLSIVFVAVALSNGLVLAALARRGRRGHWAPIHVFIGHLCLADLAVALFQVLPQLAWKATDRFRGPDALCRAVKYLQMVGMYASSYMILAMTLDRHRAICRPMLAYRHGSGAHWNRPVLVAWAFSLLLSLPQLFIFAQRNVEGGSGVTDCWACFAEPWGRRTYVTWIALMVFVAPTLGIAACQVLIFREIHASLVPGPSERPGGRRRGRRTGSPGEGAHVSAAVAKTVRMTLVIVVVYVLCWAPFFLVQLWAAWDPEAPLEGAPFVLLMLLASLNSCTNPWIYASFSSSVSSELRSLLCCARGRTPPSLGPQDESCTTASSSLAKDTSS

Molecule: 1-desamino-8-D-arginine-vasopressin [Desmopressin]
- activation (IP1 formation) (inotocin R (L. niger)): inactive
- activation (IP1 formation) [1]: inactive

Molecule: COc1ccc(S(=O)(=O)N2c3ccc(Cl)cc3[C@](O)(c3ccccc3Cl)[C@@H]2C(=O)N2CCC[C@H]2C(N)=O)cc1OC [SR49059, relcovaptan]
- reduction of area-under-the-curve (AUC) (human myometrium; [12]): 72.1%
- reduction of contraction amplitude (human myometrium; [12]): 54.8%
- concentration at which decrease in area-under-the-curve became significant (human myometrium; tested 1-100 nM): 30 nM
- concentration at which decrease in contraction amplitude became significant (human myometrium; tested 1-100 nM): 30 nM

Molecule: CC[C@H](C)[C@@H]1NC(=O)[C@H](CC(C)C)NC(=O)[C@@H](N)CSSC[C@@H](C(=O)N2CCC[C@H]2C(=O)N[C@H](CCCNC(=N)N)C(=O)NCC(N)=O)NC(=O)[C@H](CC(N)=O)NC(=O)[C@H]([C@@H](C)O)NC1=O [[D-Arg8]-inotocin] (H-CLITNCP[dR]G-NH2; disulfide 1-6)
- EC50 (human V1bR [2]; [13]): > 100 µM
- EC50 (human V1bR [2]; IP1 response, human V1bR, read-out: EC50): > 10 µM
- EC50 (human V2R [3]): 0.164 ± 0.026 µM
- Ki (human V1bR [4]; [14]): > 100 µM
- Ki (human V1bR [4]; Ki, no significant displacement, human V1b receptor): > 4 µM
- Ki (human V2R [5]; [14]): > 100 µM
- Ki (human V2R [5]; Ki, no significant displacement, human V2 receptor): > 4 µM
- remaining at 24 h ([6]; human serum, 37 °C, 24 h, read-out: peptide still present after 24 h): > 70%
- binding selectivity (human V1aR [7]; human V1aR over OTR, V1bR and V2R): 3,000 fold
- Kb (human V1aR [8]): 0.0158 µM
- EC50 (human OTR [9]; [13]): > 100 µM
- EC50 (human OTR [9]; [15]): > 10 µM
- Ki (human OTR [10]): > 4 µM
- EC50 (human V1aR [11]; [13]): > 100 µM
- EC50 (human V1aR [11]; [16]): > 10 µM

Molecule: CC[C@H](C)[C@@H]1NC(=O)[C@H](CC(C)C)NC(=O)[C@@H](N)CSSC[C@@H](C(=O)N2CCC[C@H]2C(=O)N[C@@H](CCCNC(=N)N)C(=O)NCC(N)=O)NC(=O)[C@H](CC(N)=O)NC(=O)[C@H]([C@@H](C)O)NC1=O [inotocin] (H-CLITNCPRG-NH2; disulfide 1-6)
- EC50 (human V1bR [2]; [13]): 0.056 ± 0.0097 µM
- EC50 (human V2R [3]): > 1.5 µM
- Ki (human V1bR [4]; [14]): 0.012 ± 0.0065 µM
- Ki (human V2R [5]; [14]): > 100 µM
- half-life ([6]; human serum, 37 °C, 100 μM peptide, read-out: half-life t½ (converted)): 2.8 h
- degradation in human serum ([6]; within 24 h): fully degraded
- Ki (human V1aR [7]; read-out: Affinity (Ki)): 0.011 ± 0.0044 µM
- EC50 (human OTR [9]; [13]): > 100 µM
- EC50 (human OTR [9]; [15]): > 10 µM
- Ki (human OTR [10]): 0.062 ± 0.037 µM
- EC50 (human V1aR [11]; [13]): > 100 µM
- EC50 (human V1aR [11]; [16]): > 10 µM

From article PMC5286520 (Scientific Reports, 2017)
